Measurements: paper PMC12814168, “Fast, Bright, and Reversible Fluorescent Labeling of Rhodamine-Binding Proteins” (Journal of the American Chemical Society, 2025)

Experiments:
[1] = Spectral properties: absolute quantum yield, extinction coefficient, brightness; format: physicochemical
Description: Serially fluorophore dilutions (0 – 3 μM) were prepared in activity buffer in presence or absence […]
Measurements were performed in 200 μL volumes in clear-bottom non-binding […]
recorded on the Spark20M microplate reader (Tecan). Following baseline correction, the absorbance was plotted against the dye concentration and the data were fitted linearly. Path […]
(§1) coefficients were calculated via the Lambert-Beer law (Equation 1).
Absolute quantum yields were determined at room temperature using a Hamamatsu Quantaurus-QY spectrometer (C11347 model). Rhodamine dyes (1 μM) were tested with and without excess […]
Samples were prepared in 800 μL glass vials
Quantum yield represent as mean ± standard deviation from three technical replicates. The brightness was thereafter calculated using Equation 5. […]

SiR-tag [2] = test: Fluorescence emission increase (FI/FI0) of SiR upon binding to SiR-tag; format: biochemical; conditions: 50 nM dye, with vs without 20 μM protein
Description: The thermal stability of Rho-tag variants was assessed using nano differential scanning fluorimetry (nanoDSF) on a Prometheus NT48 (NanoTemper Technologies). Protein samples (100 µM in activity buffer) were subjected to a thermal gradient from 20° C to 95° C at 1 °C / min.
The intrinsic fluorescence ratio (350 / 330 nm) of tryptophan / tyrosine residues was monitored, and the melting temperature (TM) was determined as the inflection point of this ratio curve. Each sample was analyzed in technical duplicate (N=2), and results are reported as mean ± standard […]
Fluorescence emission spectra
To evaluate fluorescence turn-on or quenching (F I/FI0), rhodamine dyes (2 – 50 nM) were incubated with or without excess Rho-tag (20 μM) in activity buffer containing 0.5% BSA (w/v).
Measurements were performed in black 384-well plates (Greiner) using the Spark20M microplate reader (Tecan) in technical replicates.
FI/FI0 was defined as the ratio of fluorescence intensity with protein to that without at the emission […]
recorded on the Spark20M microplate reader (Tecan). Following baseline correction, the absorbance was plotted against the dye concentration and the data were fitted linearly. […]
as §1
Absolute quantum yields were determined at room temperature using a Hamamatsu Quantaurus-QY spectrometer (C11347 model). […]

Rho-tag = biological target: T1, Rho-tag (Chlorobaculum tepidum, UniProt Q8KFZ1, A66M/D121K/D126E/E36V/E70D/F125Y/F62Y/G107D/G67E/H40T/K51V/M64F/N138A/Q25R/S152V/S33N/S65D/V17Q/V87I); test: Fluorescence intensity titration of SiR with serial Rho-tag dilutions, 50 mM HEPES, 50 mM NaCl, pH 7.3 with BSA, 25 °C.; format: binding; conditions: SD, n = 3
T1 construct: gene CT0179; His10-TEV, recombinant from E. coli
Description: electroporation buffer, aliquoted (12 x 50 µL) on ice, and used immediately for electroporation with 1–5 µg DNA precipitated DNA. Cells were transferred to pre-chilled 0.2 cm gap electroporation cuvettes (Bio-Rad), and electroporated using a Gene Pulser Xcell (0.54 kV, 25 µF, infinite resistance, exponential decay). Cells were recovered in 2 mL YPDS at 30 °C, shaking for 1 h and afterwards expanded in 100 mL SDCAA at 30 °C for 2 days.
YSD protein expression, staining and sorting
regions were amplified via KOD PCR reaction using primers containing unique barcodes (NGS adaptor ligation oligos, Eurofins Genomics) analyzed by NGS sequencing (Illumina technology, Eurofins Genomics). The NGS results were analyzed using a custom-build pipeline as described previously. […] Alternatively, plasmid DNA was transformation into E.cloni 10G and single colonies were analyzed by Sanger sequencing (Eurofins). […]
and 1 (fully bound dye). The dissociation constants KD were determined by fitting a single-site […]

SiR-tag [3] = biological target: T2, SiR-tag; test: Fluorescence intensity titration of 20 nM SiR with serial protein dilutions, 50 mM HEPES, 50 mM NaCl, pH 7.3 with BSA, 25 °C, 4 independent measurements.; format: binding; conditions: read-out: K D (SiR), SiR-tag; SD, n = 4
T2 construct: 2 + PROSS8 background combined with P57M/F58Y/R60L and G63N/F64K/D65N/M66H; His10-TEV
Description: 4 Bioluminescent Rho-tag and far-red SiR-tag. A) Schematic representation of direct excitation (left) or bioluminescence (BRET, right) of Rho-tag/TMR. B) AlphaFold2 (AF2) model of RhoLuc (N-Rho-tag^1‑64-GSG-cpNLuc^67/68-GS-Rho-tag^67‑158-C). cpNLuc^67/68 was inserted into the 64/67 site of Rho-tag. Tertiary structures are represented as colored cartoons and surface. The TMR ligand presented as yellow sticks. 3-Methoxyfurimazine (3MF) was modeled into the structure by aligning a crystal structure of NLuc (PDB-ID7SNT) to the AF model and is represented as blue sticks. pLDDT: 93.88. C) Bioluminescence profile of RhoLuc (dark blue, insertion), NLuc-Rho-tag (light blue, terminal fusion), or NLuc (gray). […] The fluorescence emission spectra were recorded upon the addition of Nano-Glo substrate (Promega 1:1000). BRET ratio (in brackets) is given as I 593/I 459. […] The fluorescence emission spectrum of 50 nM dye was recorded in the presence and absence of 20 μM protein. […]
SGCAA medium was used for induction and cells were grown at 30 °C, 250 rpm for 20 h. […] Samples were filtered through 5 mL round-bottom tubes with cell strainer caps (Falcon) and analyzed directly by FACS. […]
PMT voltages were set based on negative controls (no protein expression). Gates were applied for FSC, SSC, and fluorescence; signals >10³ (bilirubin or rhodamine dyes) were considered positive, background ≤10². […]

[4] = with 20 µM Rho-tag (TMR, JF549) or SiR-tag (SiR, JF646)

T1 sequence (Q8KFZ1 entry or part of it with the stated changes): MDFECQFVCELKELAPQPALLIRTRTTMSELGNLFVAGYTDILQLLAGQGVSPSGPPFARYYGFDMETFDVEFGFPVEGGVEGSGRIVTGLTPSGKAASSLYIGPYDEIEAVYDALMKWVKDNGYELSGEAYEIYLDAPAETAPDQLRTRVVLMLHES

CN(C)c1ccc2c(c1)[Si](C)(C)c1cc(N(C)C)ccc1C21OC(=O)c2ccccc21 [SiR, silicon rhodamine]
Absolute quantum yield Φ ([1]; HaloTag7-bound): 0.546 ± 0.018
Brightness ε × Φ ([1]; HaloTag7-bound): 068 ± 1 M-1cm-1 × 103
Extinction coefficient ε ([1]; HaloTag7-bound): 125 ± 15 M-1cm-1 × 103
Brightness ε × Φ ([1]; buffer): 067 ± 2 M-1cm-1 × 103
Extinction coefficient ε ([1]; buffer): 120 ± 22 M-1cm-1 × 103
Absolute quantum yield Φ ([1]; buffer (unbound dye)): 0.562 ± 0.003
Absolute quantum yield Φ [1, 4]: 0.649 ± 0.012
Brightness ε × Φ [1, 4]: 105 ± 1 M-1cm-1 × 103
Extinction coefficient ε [1, 4]: 162 ± 30 M-1cm-1 × 103
Fluorescence increase FI/FI0 upon binding to SiR-tag (SiR-tag [2]): 13 fold
Kd (Rho-tag): 6.5 µM
Kd (SiR-tag [3]): 0.048 µM
